# Where two headings read alike, the source gives them in different places.
# Target: T1, Syk kinase (Homo sapiens, UniProt P43405)
# T1 construct: purchased
# Assay: Syk kinase inhibition, Caliper LabChip off-chip mobility-shift kinase assay
# Assay type: biochemical
# Conditions: read-out: Syk Enzyme IC50
# Summary of the method: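 Purified Syk pre-incubated 15 min with compound in 100 mM HEPES pH 7.5, 1 mM DTT, 10 mM MgCl2 or MnCl2, 0.002% Brij-35, then 1.5 μM fluorescein peptide and ATP at apparent KM added; 1–1.5 h at room temperature, 4% DMSO, EDTA stop. Microfluidic mobility-shift product/substrate conversion gave % inhibition; IC50 from 12-point series (10–0.00003 μM) by 4-parameter fit.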
SMILES,IC50 (Caliper LabChip assay) [nM],IC50 [nM]
CC(C)(C)Nc1nc(Nc2cc(C(F)CO)ccn2)cc2ccn(CCO)c(=O)c12 (stereo not drawn) [compound 872],< 1.17,
Cn1ccc2cc(Nc3ccc(C(N)=O)cn3)nc(N)c2c1=O [compound 574],,142
CCn1ccc2cc(Nc3cnccn3)nc(Nc3ccc(C(=O)N4CCC(O)CC4)cc3)c2c1=O [compound 832],1130,
CN(C)CCn1ccc2cc(Nc3cc(Cl)ccn3)nc(N[C@H]3CC[C@@H](O)CC3)c2c1=O [compound 388],,42
CC(C)Nc1nc(Nc2cc(Cl)ccn2)cc2cc[nH]c(=O)c12 [compound 484],,54
Cc1ccnc(Nc2cc3ccn(CCN(C)C)c(=O)c3c(N[C@H]3CC[C@@H](O)CC3)n2)c1 [compound 386],,49
O=c1c2c(NC3CCCC3)nc(Nc3cnccn3)cc2ccn1C[C@H](O)CO [compound 775],10,
"CC(C)(C)Nc1nc(Nc2cnccn2)cc2ccn(CCS(C)(=O)=O)c(=O)c12 [compound 738, 8-(tert-butylamino)-2-(2-(methylsulfonyl)ethyl)-6-(pyrazin-2-ylamino)-2,7-naphthyridin-1(2H)-one]",9,
CC(C)(C)Nc1nc(Nc2cc(C3=CCCCO3)ncn2)cc2ccn(CCO)c(=O)c12 [compound 624],590,
O=c1[nH]ccc2cc(-c3cncnc3)nc(Nc3ccc(C4CCNCC4)c(F)c3)c12 [compound 194],,28
CC(C)(C)Nc1nc(Nc2cc(C3(C(N)=O)CC3)ccn2)cc2ccn(CCO)c(=O)c12 [compound 859],170,
CO/N=C(\C)c1cc2cc[nH]c(=O)c2c(Nc2ccc(C3CCN(C4CC4)CC3)c(C)c2)n1 [compound 237],,407
CC1(Nc2nc(-c3cnc(N)nc3)cc3ccn(C4COC4)c(=O)c23)CCC1 [compound 931],15,
CCN1CCN(CCc2ccc(Nc3nc(-c4cnc(OC)nc4)cc4c(F)c[nH]c(=O)c34)cc2)CC1 [compound 439],,474
CCn1ccc2cc(Nc3cc(C)ccn3)nc(N[C@@H]3CCC[C@@H]3CO)c2c1=O [compound 941],226,
"CC1(O)CN(c2cc(Nc3cc4ccn(CCO)c(=O)c4c(NC(C)(C)C)n3)ncn2)C1 [compound 630, 8-(tert-butylamino)-6-(6-(3-hydroxy-3-methylazetidin-1-yl)pyrimidin-4-ylamino)-2-(2-hydroxyethyl)-2,7-naphthyridin-1(2H)-one]",204,
CCN1CCN(CCCc2ccc(Nc3nc(-c4cncc(OC)n4)cc4cc[nH]c(=O)c34)cc2)CC1 [compound 41],,42
CC(C)(C)Nc1nc(-c2cnc(N)nc2)cc2c(Cl)cn(CCO)c(=O)c12 [compound 666],28,

SMILES,IC50 (Caliper LabChip assay) [nM],IC50 [nM]
COc1cncc(-c2cc3cc[nH]c(=O)c3c(Nc3ccc(C4CCN(C5CCCC5)CC4)c(C)c3)n2)n1 [compound 62],,11
COc1cncc(-c2cc3cc[nH]c(=O)c3c(Nc3ccc(C4CN(CCO)C4)cc3)n2)n1 [compound 147],,4
Cc1ccc(-c2cc3cc[nH]c(=O)c3c(Nc3ccc(CCN4CCNC(=O)C4)cc3)n2)cn1 [compound 152],,117
CCn1ccc2cc(Nc3cc(C)ccn3)nc(NC[C@H]3CC[C@@](C)(O)C3)c2c1=O [compound 416],,176
CC(C)(O)Cn1ccc2cc(-c3cnc(N)nc3)nc(NC(C)(C)C)c2c1=O [compound 928],44,
CCn1ccc2cc(Nc3cc(C(C)(C)O)ccn3)nc(NC3(CO)CCC3)c2c1=O [compound 703],85,
Cc1ccnc(Nc2cc3ccn(C)c(=O)c3c(N[C@H]3CC[C@H](O)CC3)n2)c1 [compound 357],,41
COCCn1ccc2cc(Nc3cnccn3)nc(N[C@H]3CC[C@@H](O)CC3)c2c1=O [compound 1005],17,
Nc1nc(Nc2nccc(O)n2)cc2ccn(CCO)c(=O)c12 [compound 812],359,
Cc1ccc(Nc2cc3cc[nH]c(=O)c3c(Nc3ccc(N4CCO[C@H](C)C4)c(C)c3)n2)nc1 [compound 582],,2220
"CC(C)(C)Nc1nc(Nc2cc(-c3c[nH]nc3C(F)(F)F)ncn2)cc2ccn(CCO)c(=O)c12 [compound 635, 8-(tert-butylamino)-2-(2-hydroxyethyl)-6-(6-(3-(trifluoromethyl)-1H-pyrazol-4-yl)pyrimidin-4-ylamino)-2,7-naphthyridin-1(2H)-one]",314,
COc1cncc(-c2cc3cc[nH]c(=O)c3c(Nc3ccc(C4CCN(CCC(=O)O)CC4)c(C)c3)n2)n1 [compound 163],,7
COc1cncc(-c2cc3cc[nH]c(=O)c3c(Nc3ccc(C4CCN(CC(=O)N(C)OC)CC4)c(C)c3)n2)n1 [compound 176],,41
Cc1ccnc(Nc2cc3cc[nH]c(=O)c3c(NC[C@@H]3CCCO3)n2)c1 [compound 505],,63
Cc1ccnc(Nc2cc3ccn(C)c(=O)c3c(Nc3cc(C)ccn3)n2)c1 [compound 569],,701
Cn1ccc2cc(Nc3nccc(O)n3)nc(Nc3ccc(C(N)=O)cc3)c2c1=O [compound 804],194,
COCCN1CCN(c2n[nH]c3cc(Nc4nc(-c5cncc(OC)n5)cc5cc[nH]c(=O)c45)ccc23)CC1 [compound 217],,29
Cc1ccnc(Nc2cc3ccn(CCCO)c(=O)c3c(N[C@H]3CC[C@@H](O)CC3)n2)c1 [compound 947],19,

# From patent publication US20110053897A1 (IRM LLC, priority 2009, published 2011)
